Reference: US6369101B1, “Therapeutic method to treat herpes virus infection” (Regents of the University of Minnesota, priority 1999, dated 2002)
In brackets after ≈: the same amount, converted by molar mass. Like-named read-outs stand apart in the source and are kept apart here.

Legend:
[1] = tested on: Primary human foreskin fibroblast cells (HFF); assay: Cell proliferation assay (cytotoxicity) in HFF cells; assay type: cell-based
Procedure: (§1) Human laryngeal epithelial carcinoma cells (HEp-2, ATCC, Rockville, Md.) were used for testing of antiviral compounds by cytopathic effect (CPE) inhibition and plaque reduction assay. […] HEp-2, African green monkey kidney cells (Vero, ATCC), HFF and primary rabbit kidney cells were used to determine the cytotoxic effect of compounds of formula I. These cells were propagated in Dulbeco's modified Eagle's medium (DMEM) (Sigma, USA) supplemented with 10% inactivated fetal calf serum (FCS), 25 mM HEPES, 0.2% sodium bicarbonate and 1% penicillin/-streptomycin at 37° C. in the presence of 5% CO2.
(§2) HFF, Vero and HEp-2 cells were seeded in 24-well tissue culture plates at a concentration of […] in DMEM containing 10% FCS and incubated for 24 hours at 37° C. in the presence of 5% CO2. To the monolayer of these cells 0.5, 1.0, 1.5 and 2.0 ml of solution of antiviral compounds were added in the respective wells in duplicate and the cells were then incubated in a 5% CO2 incubator at 37° C. for 72 hours. The cells were observed daily for any change in morphology. […] At the end of this time, the media-drug solution was removed and the cells washed. One ml of 0.25% trypsin was added to each well and incubated until the cells start to come off of the plate. The cells-media mixture was then pipetted up and down several times to resuspend the cells and 0.2 ml of the cell suspension was added to 9.8 ml of trypan blue and cells were counted using hemocytometer. Each sample was counted three times with three replicate wells per sample.

[2] = as above; assay type: cell-based, human; conditions: primary human foreskin fibroblast (HFF) cells; Human foreskin fibroblast cells; reduces growth of uninfected cells by 50%
Procedure: as §1, §2

HSV-1 strain E-377 = assay: CPE inhibition assay, HSV-1 E377 in human foreskin fibroblast cells; assay type: cell-based, herpes simplex virus type 1; as to Qualitative CPE at 2.0 ml dose HSV-1 E377: key: +++ = Complete cytopathic effect; ++ = Moderate cytopathic effect; + = Minimum cytopathic effect; − = No cytopathic effect
Procedure: (§3) Stock solutions of the compounds used for the testing of antiviral activity against HSV-1 and HSV-2 were prepared in distilled water, filtered through 0.2 μm filter (Acrodisco®, Gelman Sciences, USA) and stored at room temperature until used.
(§4) Human laryngeal epithelial carcinoma cells (HEp-2, ATCC, Rockville, Md.) were used for testing of antiviral compounds by cytopathic effect (CPE) inhibition and plaque reduction assay. Primary human foreskin fibroblast cells (HFF) obtained from Dr. E. R. Kern (Department of Pediatrics, University of Alabama Medical School, 309 Bevill Biomedical Research Building, 845 19th Street South, Birmingham, Ala., 35294-2170), were used for cytopathic effect (CPE) inhibition assay. HEp-2, African green monkey kidney cells (Vero, ATCC), HFF and primary rabbit kidney cells were used to determine the cytotoxic effect of compounds of formula I. These cells were propagated in Dulbeco's modified Eagle's medium (DMEM) (Sigma, USA) supplemented with 10% inactivated fetal calf serum (FCS), 25 mM HEPES, 0.2% sodium bicarbonate and 1% penicillin/-streptomycin at 37° C. in the presence of 5% CO2.
(§5) The antiviral activity of the test compounds was determined against HSV-1 strain F, HSV-2 strain G (ATCC), HSV-1 strain E-377 and HSV-2 strain MS (Dr. E. R. Kern, see above), CMV strain AD 169 (NIH), HCMV (NIH), MCMV (NIH), and VZV strain Ellen (NIH). Highly infective virus stocks of HSV-1 and HSV-2 were prepared by infecting a confluent monolayer of HEp-2 (ATCC) or HFF in 150 cm^2 plastic tissue culture flasks (Falcon, USA) at a multiplicity of infection of 0.5 in DMEM supplemented with 10% inactivated fetal calf serum and 1% penicillin/streptomycin at 37° C. in the presence of 5% CO2. The infected cells were disrupted through three freeze/thaw cycles, and viruses were clarified from large cell debris by low speed centrifugation at 3000 rpm for 10 minutes. The virus suspension was separated, aliquoted and stored at −80° C. until assayed or used for animal infection. The stock HSV-1 (E377) and HSV-2 (MS strain) contained 3.5×10^8 and 1.1×10^7 pfu/ml respectively.
(§6) Low passage HFF cells were seeded into 96-well tissue culture plates 24 hours prior to use at a cell concentration of 2.5×10^4 cells per ml in 0.2 ml of DMEM supplemented with 10% fetal calf serum. After 24 hours of incubation at 37° C. in the presence of 5% CO2, medium was removed and the test compounds were diluted two-fold in DMEM in the 96-well tissue culture plate containing monolayer. […] For both HSV-1 and HSV-2 assays, the virus concentration utilized was 1000 pfu/ml and for HCMV, MCMV, and VZV assay 2500 pfu/ml were used. The plates were then incubated at 37° C. in the presence of 5% CO2 for two to three days for HSV-1 and HSV-2, 10 days for VZV and 14 days for HCMV and MCMV. The virus induced cytopathic effect (CPE) was monitored microscopically every day. CPE of HSV-1 was recognized by cell rounding and clumping, while HSV-2 formed large syncytia along with rounding and clumping of cells. […] EC50s were estimated from graphical plots of percent CPE against the concentration of the test compounds. The EC50s for each compound are the mean of EC50s for three or more independent experiments. After three days of incubation period, media was aspirated and the cells stained with a 0.1% crystal violet solution for 30 minutes. The stain was then removed and the plates were rinsed with tap water, air dried and retained.

HSV-2 strain G = assay: CPE inhibition, HSV-2 strain G in HEp-2 cells; also: key: +++ = Complete cytopathic effect; ++ = Moderate cytopathic effect; + = Minimum cytopathic effect; − = No cytopathic effect; assay type: cell-based, herpes simplex virus type 2; conditions: conc. per compound (ng/ml)
Excerpt: as §4, §5, §6

HSV-1 strain F = assay: CPE inhibition, HSV-1 strain F in HEp-2 cells; also: key: +++ = Complete cytopathic effect; ++ = Moderate cytopathic effect; + = Minimum cytopathic effect; − = No cytopathic effect; assay type: cell-based, herpes simplex virus type 1; conditions: conc. per compound (ng/ml)
Excerpt: as §4, §5, §6

[3] = tested on: Human laryngeal epithelial carcinoma cells (HEp-2); assay: Cytotoxicity in HEp-2 cells; assay type: cell-based
Procedure: as §1, §2

HSV-2 strain MS = assay: CPE inhibition assay, HSV-2 MS in human foreskin fibroblast cells; assay type: cell-based, herpes simplex virus type 2; as to Qualitative CPE at 2.0 ml dose HSV-2 MS: key: +++ = Complete cytopathic effect; ++ = Moderate cytopathic effect; + = Minimum cytopathic effect; − = No cytopathic effect
Procedure: as §3, §4, §5, §6

Varicella-Zoster Virus = assay: CPE inhibition in stationary cells (visual), VZV in HFF cells; assay type: cell-based
HFF cells = assay: CC50 in HFF cells (Table 3); assay type: cell-based, human; conditions: HFF cells
Procedure: (§7) The cells were observed daily for any change in morphology. The rounding and lysis of cells were observed if the compound has cytotoxic effect. At the end of this time, the media-drug solution was removed and the cells washed. […] The cells-media mixture was then pipetted up and down several times to resuspend the cells and 0.2 ml of the cell suspension was added to 9.8 ml of trypan blue and cells were counted using hemocytometer. Each sample was counted three times with three replicate wells per sample.

Human Cytomegalovirus = assay: CPE inhibition in stationary cells (visual), HCMV in HFF cells; assay type: cell-based
HSV-2 (strain G) = assay: Plaque reduction assay, HSV-2 strain G in HEp-2 cells; assay type: cell-based, herpes simplex virus type 2; conditions: conc. per compound (ng/ml) (Acyclovir 250), HSV-2 virus control 47
Procedure: (§8) HEp-2 cells were grown to monolayer in 24 well tissue culture plates in DMEM containing 10% fetal calf serum at 37° C. for 24-36 hours in the presence of 5% CO2. The monolayer of HEp-2 cells was infected with 0.1 ml of HSV- 1 (strain F) or HSV-2 (strain G) containing 100 pfu. The viruses were allowed to adsorb for 1 hour at 37° C. in the presence of 5% CO2. All wells containing virus infected cells except virus control were overlaid with 0.9 ml of DMEM and 1 ml of test compound. The virus control and cell control received DMEM only. All microtiter plates were incubated at 37° C. in the presence of 5% CO2 and observed twice daily for 72 hours for viral CPE. At the end of the experiment, plates were stained with 0.1% crystal violet and the results were quantified by counting plaque forming units.

Daudi cells = assay: CC50 in Daudi cells (Table 3); assay type: cell-based
Procedure: (§9) Raji is a Burkitt's lymphoma cell line containing 60 EBV genome/cell, and was the primary cell used for screening antiviral activity against EBV early antigen (EA) expression. Daudi is a low level producer that contains 152 EBV genome copies/cell. It spontaneously expresses EBV EA in 0.25-0.5% of the cells. It was used in follow-up studies to confirm activity. […] All cell lines were maintained in RPMI-1640 medium supplemented with 10% FCS, L-glutamine and 100 μg/ml gentamicin. The cultures were fed twice weekly and the cell concentration was adjusted to 3×10^5/ml. The cells were kept at 37° C. in humidified atmosphere with 5% CO2.

Epstein-Barr Virus = assay: VCA expression in EBV-infected Daudi cells
Excerpt: Raji is a Burkitt's lymphoma cell line containing 60 EBV genome/cell, and was the primary cell used for screening antiviral activity against EBV early antigen (EA) expression. […] It spontaneously expresses EBV EA in 0.25-0.5% of the cells. It was used in follow-up studies to confirm activity. These cell lines respond to superinfection by EBV by expressing EA-diffuse component EA (D), EA restricted component EA (R), and viral capsid antigen (VCA). […] The cultures were fed twice weekly and the cell concentration was adjusted to 3×10^5/ml. The cells were kept at 37° C. in humidified atmosphere with 5% CO2.
Cells were infected with the P3HR-1 strain of HBV and the test compound was added after adsorption (45 minutes at 37° C.) and washing of the cell cultures. The cultures were incubated for two days in complete medium to allow viral gene expression. Following the 48 hours of incubation, the numbers of cells of each sample was counted and smears were made. Monoclonal antibodies to the different EA components and VCA were then added to the cells and then incubated and washed. This is followed by a fluorescein conjugated rabbit anti-mouse IgG antibody, and the number of fluorescence cells in the smear were counted. The total number of cells in the cultures positive for EA or VCA were then calculated and compared.

MEF cells = assay: CC50 in MEF cells (Table 3); assay type: cell-based; conditions: Mouse Cytomegalovirus section of Table 3
Mouse Cytomegalovirus = assay: CPE inhibition in stationary cells (visual), MCMV in MEF cells; assay type: cell-based; conditions: test compounds in DMSO
[4] = CC50 in HFF cells (Table 3); assay type: cell-based, human; conditions: human
Procedure: as §7

[5] = CC50 in Daudi cells (Table 3); assay type: cell-based; conditions: human
Procedure: as §9

HSV-1 (strain F) = assay: Plaque reduction assay, HSV-1 strain F in HEp-2 cells; assay type: cell-based, herpes simplex virus type 1; conditions: conc. per compound as in column Conc. (ng/ml), HSV-1 virus control 5
Procedure: as §8

[6] = HFF cells, solution conc. per compound (ng/ml) (Acyclovir 250), 2.0 ml dose
[7] = HEp-2 cells, conc. per compound (ng/ml)
[8] = Human Cytomegalovirus section of Table 3
[9] = Varicella-Zoster Virus section of Table 3
[10] = Daudi cells, Epstein-Barr Virus section of Table 3
[11] = Epstein-Barr Virus, Daudi cells, VCA, test compounds in DMSO
[12] = Human alphaherpesvirus 3, test compounds in DMSO, read-out: EC50
[13] = human gammaherpesvirus 4, Daudi

Molecule | Cytopathic Effect (CPE) Inhibition HSV-2 Strain G (HSV-2 strain G) | Cytopathic Effect (CPE) Inhibition HSV-1 Strain F (HSV-1 strain F) | Cell Cytotoxicity [3, 7] | EC50 (Varicella-Zoster Virus; test compounds in DMSO) | CC50 (HFF cells; [8]) | CC50 (HFF cells; [9]) | EC50 HSV-1 E377 (HSV-1 strain E-377; CPE inhibition in HFF cells) | EC50 (Human Cytomegalovirus; test compounds in DMSO) | Plaque Reduction Assay Average pfu/10^5 Cells HSV-2 Strain G (HSV-2 (strain G)) | CC50 (Daudi cells; [10]) | EC50 HSV-2 MS (HSV-2 strain MS; CPE inhibition in HFF cells) | EC50 (Epstein-Barr Virus; [11]) | EC50 (Varicella-Zoster Virus; [12]) | EC50 (Epstein-Barr Virus; [13]) | other results
CC1(C)CCC23CC[C@]4(C)C(CCC5[C@@]6(C)C=C(O)C(=O)C(C)(C)C6CC[C@]54C)C2C1OC3 (stereo partly drawn) [Allobetulon-1,2-ene-2-ol, Allobetulon 1,2-ene-2-ol.] | ++ | ++ | − |  |  |  |  |  |  |  |  |  |  |  | Qualitative Cytotoxic Effect at 2.0 ml dose [1, 6]: −; CC50 at 72 h [2]: 0.22 µg/mL (≈ 0.484 µM); Qualitative CPE at 2.0 ml dose HSV-1 E377 (HSV-1 strain E-377; [6]): +++; EC50 (HSV-1 strain E-377; Human alphaherpesvirus 1, HFF, CPE inhibition in HFF cells, read-out: EC50 HSV-1 E377): 0.22 µg/mL (≈ 0.484 µM); Qualitative CPE at 2.0 ml dose HSV-2 MS (HSV-2 strain MS; [6]): +++; EC50 (HSV-2 strain MS; Human alphaherpesvirus 2, HFF, CPE inhibition in HFF cells, read-out: EC50 HSV-2 MS): 0.165 µg/mL (≈ 0.363 µM); melting point: 236.8 to 238.8 °C
C[C@@H]1O[C@@H](O[C@H]2[C@H](O[C@H]3CC[C@@]4(C)[C@@H](CC[C@]5(C)[C@@H]4CC=C4[C@@H]6CC(C)(C)CC[C@]6(C(=O)O)CC[C@]45C)[C@]3(C)CO)OC[C@H](O)[C@@H]2O)[C@H](O)[C@H](O)[C@H]1O [Hederine hydrate, α-hederin hydrate] | ++ | ++ | − | >0.004 µg/mL | 0.01 µg/mL | 0.0115 µg/mL | >0.25 µg/mL | >0.004 µg/mL | 38 pfu/10^5 Cells | 0.0038 µg/mL | >0.25 µg/mL | 0.0015 µg/mL |  |  | CC50 ([1]; Human foreskin fibroblast cells, reduces growth of uninfected cells by 50%): >0.25 µg/mL
Betulin succinate |  |  |  | >0.02 µg/mL | 0.0969 µg/mL | 0.0688 µg/mL |  | 0.0039 µg/mL |  | >0.05 µg/mL |  | >0.05 µg/mL |  |  | CC50 (MEF cells): 0.014 µg/mL; EC50 (Mouse Cytomegalovirus): >0.004 µg/mL
C[C@H]1[C@H](C)CC[C@]2(C(=O)O)CC[C@]3(C)C(=CC[C@@H]4[C@@]5(C)CC[C@H](O)C(C)(C)[C@@H]5CC[C@]43C)[C@H]12 [Ursolic acid] | ++ | ++ | − |  |  |  |  |  | 33 pfu/10^5 Cells |  |  |  | > 0.0008 µg/mL | 0.0485 µg/mL (≈ 0.106 µM) | CC50 at 72 h ([4]; HFF cells, Human Cytomegalovirus section of Table 3, read-out: CC50): > 0.1 µg/mL; CC50 at 72 h ([4]; HFF cells, Varicella-Zoster Virus section of Table 3, read-out: CC50): 0.0029 µg/mL (≈ 0.00635 µM); EC50 (Human Cytomegalovirus; Human betaherpesvirus 5, test compounds in DMSO, read-out: EC50): > 0.1 µg/mL; CC50 ([5]; Daudi cells, Epstein-Barr Virus section of Table 3, read-out: CC50): > 0.05 µg/mL
C=C(C)[C@@H]1CC[C@]2(COP(=O)(O)O)CC[C@]3(C)[C@H](CC[C@@H]4[C@@]5(C)CC[C@H](OP(=O)(O)O)C(C)(C)[C@@H]5CC[C@]43C)[C@@H]12 [Betulin diphosphate] |  |  |  |  |  |  |  |  |  |  |  |  | > 0.1 µg/mL | 0.00039 µg/mL | CC50 at 72 h ([4]; CC50): > 0.1 µg/mL; CC50 [5]: > 0.05 µg/mL
C[C@H]1[C@H](C)CC[C@]2(CO)CC[C@]3(C)C(=CC[C@@H]4[C@@]5(C)CC[C@H](O)C(C)(C)[C@@H]5CC[C@]43C)[C@H]12 [Uvaol] | ++ | ++ |  | >0.02 µg/mL |  |  | >0.25 µg/mL | >0.1 µg/mL | 28 pfu/10^5 Cells |  | >0.25 µg/mL | 0.00031 µg/mL (≈ 0.0007 µM) |  |  | Plaque Reduction Assay Average pfu/10^5 Cells HSV-1 Strain F (HSV-1 (strain F)): 0 pfu/10^5 Cells; CC50 [1]: 0.125 µg/mL (≈ 0.282 µM); Cell Cytotoxicity [3]: −; CC50 (Daudi cells): 0.0443 µg/mL (≈ 0.1 µM)
